Reference: patent publication US20220267288A1, “CARDIAC THERAPEUTIC” (priority 2019, published 2022)
Marks after values point to notes of the source that are not given here.

Tests used:
[1] = Parallel artificial membrane permeability assay (PAMPA); format: in vitro ADME; details: read-out: Effective permeability
Protocol: The aqueous solubility of each compound was measured in universal buffer (pH 7.4) using MultiscreenHTS PCF Filter Plates. The effective permeability of each compound was measured using the parallel artificial membrane permeability assay (PAMPA).

CYP3A4 [2] = target: T1, CYP3A4 (Homo sapiens, UniProt P08684); assay: Time- and concentration-dependent inactivation of CYP3A4, rivaroxaban probe; format: in vitro ADME; details: for KI (inactivation): human, recombinant CYP3A4, pH 7.4, probe rivaroxaban (50 μM), in vitro data obtained, rivaroxaban probe, read-out: Mechanism-based inactivation KI CYP3A4
T1 construct: purchased BD Gentest (Woburn, Mass.)
Protocol: Incubations were conducted in triplicates in 96-well plates. Primary incubation mixtures comprising various concentrations of inhibitor (0-20 μM) were pre-incubated at 37° C. for 3 min with CYP3A4 or CYP3A5 (20 pmol/mL) and NADPH B in potassium phosphate buffer (100 mM, pH 7.4). To initiate the enzymatic reaction, 5 μL NADPH A was added to the primary incubation. The final primary incubation mixture volume was 100 μL and contained <1% v/v organic solvent. At different pre-incubation time points (3, 8, 15, 22, 30, and 45 min) after the addition of NADPH A, 5 μL aliquots of the primary incubation were transferred to 95 μL of the secondary incubation containing 50 μM rivaroxaban, the NADPH A and B, and potassium phosphate buffer (100 mM, pH 7.4) to yield a 20-fold dilution. The secondary incubation mixtures were incubated at 37° C. for 2 h with CYP3A4 or CYP3A5 before 80 μL aliquots were removed and quenched with an equal volume of ice-cold ACN containing 4 μM dexamethasone as IS. The samples were then centrifuged at 3220 g at 4° C. for 30 min before transferring the supernatant to a 96-well plate for liquid chromatography-tandem mass spectrometry (LC-MS/MS) analysis. The main rivaroxaban metabolite, morpholinone hydroxylated metabolite, was quantified using LC-MS/MS analysis.
The mean of triplicate peak area ratios for each inhibitor concentration and pre-incubation time was normalized to that of 0 μM inhibitor with the same pre-incubation time. The amount of rivaroxaban metabolite formed during the secondary incubation, a measure of the probe substrate activity remaining, was computed and the natural logarithm of this measure was plotted against inactivation pre-incubation time for each inactivator concentration. For each concentration, the data was then fitted to a linear regression model, through which kobs (apparent inactivation rate constant) was obtained as the negative gradient of the linear regression. […]

[3] = Metabolic stability (substrate depletion) with HLM; format: in vitro ADME, human; details: for elimination rate constant k by HLM / half-life at 1 μM: 1 μM substrate, HLM 0.5 mg/mL; for half-life at 1 μM / microsomal CLint at 1 μM: human, pooled human liver microsomes, pH 7.4; for half-life at 1 μM: read-out: T1/2 by HLM; for microsomal CLint at 1 μM: substrate depletion, read-out: Intrinsic clearance, CLint HLM
Protocol: (§1) The metabolic stability experiments were performed to derive intrinsic clearance (CLint) values via the substrate depletion method. […] NADPH A was subsequently added to initiate the reaction. […] The reaction mixtures were incubated at 37° C. with gentle agitation. At the respective time points (0-60 min), 80 μL of the reaction mixture was quenched using an equal volume of ice-cold ACN with 1 μM tamoxifen as internal standard (IS). The samples were then centrifuged at 3220 g at 4° C. for 30 min before transferring the supernatant to a 96-well plate for liquid chromatography-tandem mass spectrometry (LC-MS/MS) analysis.
(§2) The mean of triplicate peak area ratios for each compound was normalized to that of the same compound at the 0 min time point to obtain the percentage of substrate remaining at each time point. This was plotted against incubation time for each compound and the data was then fitted to a one-phase decay model using GraphPad Prism software (version 8.02; GraphPad Inc., San Diego, Calif.) to obtain an estimation for the elimination rate constant (k). CLint was then calculated based on equation 3:
(§3) In equation 3, k=elimination rate constant (min^−1); V=volume of incubation mixture (mL); P=amount of protein in mixture (mg).

CYP3A4 [4] = target: T1, CYP3A4; assay: Metabolic stability (substrate depletion) with CYP3A4; format: in vitro ADME; details: for elimination rate constant k by CYP3A4 / half-life at 1 μM: 1 μM substrate, CYP3A4 10 pmol/mL; for CLint (CYP3A4): PBPK parameter, in vitro data obtained; for half-life at 1 μM: human, CYP3A4 enzyme, pH 7.4, read-out: T1/2 by CYP3A4; for Intrinsic clearance, CLint CYP3A4: substrate depletion
Protocol: as §1, §2, §3

T1 sequence (P08684 whole entry): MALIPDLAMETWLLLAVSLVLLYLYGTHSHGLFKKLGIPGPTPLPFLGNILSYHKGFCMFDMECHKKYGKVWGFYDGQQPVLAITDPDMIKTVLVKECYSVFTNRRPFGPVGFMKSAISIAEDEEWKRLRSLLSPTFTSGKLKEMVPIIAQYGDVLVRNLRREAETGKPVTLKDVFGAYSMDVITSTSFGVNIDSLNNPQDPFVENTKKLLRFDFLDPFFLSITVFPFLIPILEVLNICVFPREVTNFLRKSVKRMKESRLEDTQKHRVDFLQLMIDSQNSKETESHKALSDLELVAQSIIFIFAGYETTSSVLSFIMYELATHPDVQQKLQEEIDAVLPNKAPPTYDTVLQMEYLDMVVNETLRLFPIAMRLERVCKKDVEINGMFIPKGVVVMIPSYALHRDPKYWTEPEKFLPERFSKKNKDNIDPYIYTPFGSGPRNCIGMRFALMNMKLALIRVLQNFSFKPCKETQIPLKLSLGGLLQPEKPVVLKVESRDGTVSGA

SMILES | Papp [1] | KI (inactivation) (CYP3A4 [2]) | MBI potency against CYP3A4 (CYP3A4 [2]; rivaroxaban probe substrate) | elimination rate constant k by HLM [3] | half-life at 1 μM [3] | microsomal CLint at 1 μM [3] | elimination rate constant k by CYP3A4 (CYP3A4 [4]) | CLint (CYP3A4) (CYP3A4 [4]) | half-life at 1 μM (CYP3A4 [4]) | Intrinsic clearance, CLint CYP3A4 (CYP3A4 [4]) | Intrinsic clearance, CLint CYP3A4 (CYP3A4 [4]; listed as dronedarone)
CCCCc1oc2ccc(NS(C)(=O)=O)cc2c1C(=O)c1ccc(OCCCN(CCCC)CCCC)cc1.Cl [Dronedarone] | 3.46 ± 0.5 ×10⁻⁶ cm/s | 5.3 µM | 0.00505 AV min^−1 | 0.06446 min⁻¹ | 10.8 min | 129 µL/min/mg | 0.04144 min⁻¹ | 114.739* μL/min/mg microsomal protein | 16.7 min | 8.29 µL/min/pmol | 8.288 µL/min/pmol
Cl.[2H]c1c(NS(C)(=O)=O)c([2H])c2c(C(=O)c3ccc(OCCCN(CCCC)CCCC)cc3)c(CCCC)oc2c1[2H] [Poyendarone, Methanesulfonamide, N-(2-butyl-3-(4-(3-(dibutylamino)propoxy)benzoyl)-1-benzo(4,6,7-d3)-furan-5-yl)hydrochloride] | 4.08 ± 0.5 ×10⁻⁶ cm/s | 3.19 µM |  | 0.06472 min⁻¹ | 10.7 min | 129 µL/min/mg | 0.0918 min⁻¹ | 115.2016* μL/min/mg microsomal protein | 7.55 min | 9.18 µL/min/pmol | 
